Assay results as given in ChEMBL document CHEMBL5543126, “Combinatorial Ubiquitination REal-time PROteolysis (CURE-PROs): A Modular Platform for Generating Reversible, Self-Assembling Bifunctional Targeted Degraders” (J Med Chem, 2024).
Values belong to the compound of their own block, whether it stands above or below them. Active and inactive are the calls of the source. No cut-off for these calls is given here.

Legend:
Format in all cases: cell-based
[1] = molecular target: T1, von Hippel-Lindau disease tumor suppressor/Bromodomain-containing protein 4 (Homo sapiens, UniProt O60885+P40337); test: (§1) PROTAC activity at BRD4/VHL in human MCF7 cells assessed as reduction in BRD4 level incubated for 24 hrs in presence of BRD4 based ligand (2S,4R)-1-((S)-2-(2,3-dihydroxybenzamido)-3,3-dimethylbutanoyl)-4-hydroxy-N-(4-(4-methylthiazol-5-yl)benzyl)pyrrolidine-2-carboxamide by Western blot based Combinatorial Ubiquitination Real-time PROteolysis analysis
[2] = molecular target: Protein cereblon/Bromodomain-containing protein 4 (Homo sapiens) (UniProt O60885+Q96SW2); test: PROTAC activity at BRD4/CRBN in human HeLa cells assessed as induction of BRD4 degradation at 10 uM incubated for 24 hrs in presence of CRBN based ligand N-((2-(2,6-dioxopiperidin-3-yl)-1,3-dioxoisoindolin-4-yl)methyl)-2,3-dihydroxybenzamide by Western blot analysis based Combinatorial Ubiquitination Real-time PROteolysis analysis
[3] = molecular target: T1, von Hippel-Lindau disease tumor suppressor/Bromodomain-containing protein 4; test: (§2) PROTAC activity at VHL/BRD4 in HEK293 cells assessed as induction of BRD4 degradation by measuring degradation rate at 1 uM measured every 15 mins for 24 hrs in presence of VHL based ligand (2S,4R)-1-((S)-2-(2,3-dihydroxybenzamido)-3,3-dimethylbutanoyl)-4-hydroxy-N-(4-(4-methylthiazol-5-yl)benzyl)pyrrolidine-2-carboxamide by HiBiT based Combinatorial Ubiquitination Real-time PROteolysis analysis
[4] = molecular target: T1, von Hippel-Lindau disease tumor suppressor/Bromodomain-containing protein 4; test: as §2, with “at 10” for “at 1”
[5] = molecular target: T1, von Hippel-Lindau disease tumor suppressor/Bromodomain-containing protein 4; test: as §2, with “measuring maximal level of” for “measuring”, “degradation” for “degradation rate”, “at 3” for “at 1”
[6] = molecular target: T1, von Hippel-Lindau disease tumor suppressor/Bromodomain-containing protein 4; test: as §2, with “measuring Tmax” for “measuring degradation rate”, “at 3” for “at 1”
[7] = molecular target: T1, von Hippel-Lindau disease tumor suppressor/Bromodomain-containing protein 4; test: as §1, with “as induction of” for “as reduction in”, “BRD4 degradation by measuring residual activity at 100 nM” for “BRD4 level”, “of VHL” for “of BRD4”
[8] = molecular target: T1, von Hippel-Lindau disease tumor suppressor/Bromodomain-containing protein 4; test: as §1, with “as induction of” for “as reduction in”, “BRD4 degradation by measuring residual activity at 300 nM” for “BRD4 level”, “of 100 nM VHL” for “of BRD4”
[9] = molecular target: T1, von Hippel-Lindau disease tumor suppressor/Bromodomain-containing protein 4; test: as §1, with “as induction of” for “as reduction in”, “BRD4 degradation by measuring residual activity at 1 uM” for “BRD4 level”, “of 100 nM VHL” for “of BRD4”
[10] = molecular target: T1, von Hippel-Lindau disease tumor suppressor/Bromodomain-containing protein 4; test: as §1, with “as induction of” for “as reduction in”, “BRD4 degradation by measuring residual activity at 10 uM” for “BRD4 level”, “of 100 nM VHL” for “of BRD4”
[11] = molecular target: T1, von Hippel-Lindau disease tumor suppressor/Bromodomain-containing protein 4; test: as §1, with “as induction of” for “as reduction in”, “BRD4 degradation by measuring residual activity at 30 nM” for “BRD4 level”, “of 1 uM VHL” for “of BRD4”
[12] = molecular target: T1, von Hippel-Lindau disease tumor suppressor/Bromodomain-containing protein 4; test: as §1, with “as induction of” for “as reduction in”, “BRD4 degradation by measuring residual activity at 10 uM” for “BRD4 level”, “of 1 uM VHL” for “of BRD4”
[13] = molecular target: T1, von Hippel-Lindau disease tumor suppressor/Bromodomain-containing protein 4; test: as §1, with “as induction of” for “as reduction in”, “BRD4 degradation by measuring residual activity at 30 nM” for “BRD4 level”, “of 10 uM VHL” for “of BRD4”
[14] = molecular target: T1, von Hippel-Lindau disease tumor suppressor/Bromodomain-containing protein 4; test: as §1, with “as induction of” for “as reduction in”, “BRD4 degradation by measuring residual activity at 10 uM” for “BRD4 level”, “of 10 uM VHL” for “of BRD4”
[15] = molecular target: T1, von Hippel-Lindau disease tumor suppressor/Bromodomain-containing protein 4; test: (§3) PROTAC activity at VHL/BRD4 in HEK293 cells assessed as induction of BRD4 degradation by measuring degradation rate at 10 uM measured every 15 mins for 24 hrs in presence of BRD4 based ligand ((4S)-6-(4-chlorophenyl)-4-(2-(ethylamino)-2-oxoethyl)-1-methyl4Hbenzo[f][1,2,4]triazolo [4,3-a][1,4]diazepin-8-yl)boronic acid by HiBiT based Combinatorial Ubiquitination Real-time PROteolysis analysis
[16] = molecular target: T1, von Hippel-Lindau disease tumor suppressor/Bromodomain-containing protein 4; test: as §3, with “measuring maximal level of” for “measuring”, “degradation” for “degradation rate”, “1” for “10”
[17] = molecular target: T1, von Hippel-Lindau disease tumor suppressor/Bromodomain-containing protein 4; test: as §3, with “measuring maximal level of” for “measuring”, “degradation” for “degradation rate”, “3” for “10”
[18] = molecular target: T1, von Hippel-Lindau disease tumor suppressor/Bromodomain-containing protein 4; test: (§4) PROTAC activity at BRD4/VHL in human MCF7 cells assessed as induction of BRD4 degradation by measuring residual activity at 100 nM incubated for 24 hrs in presence of BRD4 based ligand ((4S)-6-(4-chlorophenyl)-4-(2-(ethylamino)-2-oxoethyl)-1-methyl4Hbenzo[f][1,2,4]triazolo [4,3-a][1,4]diazepin-8-yl)boronic acid by Western blot based Combinatorial Ubiquitination Real-time PROteolysis analysis
[19] = molecular target: T1, von Hippel-Lindau disease tumor suppressor/Bromodomain-containing protein 4; test: as §4, with “300” for “100”
[20] = molecular target: T1, von Hippel-Lindau disease tumor suppressor/Bromodomain-containing protein 4; test: as §4, with “1 uM” for “100 nM”
[21] = molecular target: T1, von Hippel-Lindau disease tumor suppressor/Bromodomain-containing protein 4; test: as §4, with “activity at 3 uM incubated for” for “activity at 100 nM incubated for”, “presence of 1 uM BRD4 based” for “presence of BRD4 based”
[22] = molecular target: T1, von Hippel-Lindau disease tumor suppressor/Bromodomain-containing protein 4; test: as §4, with “activity at 30 nM incubated” for “activity at 100 nM incubated”, “presence of 3 uM BRD4 based” for “presence of BRD4 based”
[23] = molecular target: T1, von Hippel-Lindau disease tumor suppressor/Bromodomain-containing protein 4; test: as §4, with “activity at 3 uM incubated for” for “activity at 100 nM incubated for”, “presence of 3 uM BRD4 based” for “presence of BRD4 based”
[24] = molecular target: T1, von Hippel-Lindau disease tumor suppressor/Bromodomain-containing protein 4; test: as §4, with “activity at 10 uM incubated for” for “activity at 100 nM incubated for”, “presence of 3 uM BRD4 based” for “presence of BRD4 based”

T1 sequence (P40337 whole entry, looked up, other chains not shown): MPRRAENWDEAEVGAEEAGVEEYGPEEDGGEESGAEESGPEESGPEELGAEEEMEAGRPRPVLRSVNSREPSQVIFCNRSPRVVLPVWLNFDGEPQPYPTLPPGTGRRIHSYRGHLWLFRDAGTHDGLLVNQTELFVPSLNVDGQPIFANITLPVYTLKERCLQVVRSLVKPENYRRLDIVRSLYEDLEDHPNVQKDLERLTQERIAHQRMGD
Protein cereblon/Bromodomain-containing protein 4 (Homo sapiens), sequence (Q96SW2 whole entry, looked up, other chains not shown): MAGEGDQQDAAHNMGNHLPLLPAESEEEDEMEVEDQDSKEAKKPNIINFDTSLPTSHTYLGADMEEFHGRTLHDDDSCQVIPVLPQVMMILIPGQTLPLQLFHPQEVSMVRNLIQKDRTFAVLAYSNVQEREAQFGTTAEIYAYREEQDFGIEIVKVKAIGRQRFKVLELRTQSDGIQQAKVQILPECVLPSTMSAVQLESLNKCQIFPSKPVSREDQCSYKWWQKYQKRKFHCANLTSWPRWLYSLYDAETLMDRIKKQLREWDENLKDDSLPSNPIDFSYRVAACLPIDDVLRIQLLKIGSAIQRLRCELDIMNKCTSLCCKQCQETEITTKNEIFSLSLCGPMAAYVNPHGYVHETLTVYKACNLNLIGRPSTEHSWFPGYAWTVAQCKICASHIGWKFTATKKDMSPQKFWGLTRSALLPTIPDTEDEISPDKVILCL

SMILES: CCNC(=O)C[C@@H]1N=C(c2ccc(Cl)cc2)c2cc(B(O)O)ccc2-n2c(C)nnc21
- Activity [1]: Active
- DC50 [1]: 358 nM
- Activity [2]: inactive
- Activity [3]: 0.548 h⁻¹
- Activity [4]: 4.18 h⁻¹
- Emax [5]: 93%
- Tmax [6]: 18 h
- Activity [7]: 89%
- Activity [8]: 72%
- Activity [9]: 56%
- Activity [10]: 55%
- Activity [11]: 96%
- Activity [12]: 21%
- Activity [13]: 76%
- Activity [14]: 6%

- Activity [15]: 4.18 h⁻¹
- Emax [16]: 80%
- Emax [17]: 93%
- Activity [18]: 89%
- Activity [19]: 100%
- Activity [20]: 64%
- Activity [21]: 32%
- Activity [22]: 90%
- Activity [23]: 16%
- Activity [24]: 7%
SMILES: Cc1ncsc1-c1ccc(CNC(=O)[C@@H]2C[C@@H](O)CN2C(=O)[C@@H](NC(=O)c2cccc(O)c2O)C(C)(C)C)cc1
